Experimental data: US20240409566A1, “DELIVERY OF THERAPEUTIC ALKALOID COMPOUNDS” (priority 2022, published 2024)
Values belong to the compound of their own block, whether it stands above or below them.

Columns and labels:
5-HT transporter (SERT) = 5-HT transporter (SERT) (Homo sapiens (Human), UniProt P31645); settings: cited from earlier work
[1] = Plasma stability assay, rat plasma; assay type: in vitro ADME
Experimental: (§1) Compound stability in rat and human plasma was measured by incubating compound with rat or human plasma at 37° C. in a microwell plate for sequential time points, monitoring pro-drug disappearance and metabolite appearance (mesembranol or 6-epi-mesembranol). A 2 mM stock solution of test compounds were prepared by dissolving appropriate amount of compounds in DMSO. The 2 mM stock was further diluted 200-folds in rat or human plasma to attain a final concentration of 10 μM respectively (0.5% DMSO). 50 μL aliquots of positive controls and test compounds spiked into rat or human plasma (n=2) were added to a pre-warmed plate (37° C.) and shaken at 50 rpm. At each respective time point, the reaction was stopped by adding 500 μL of acetonitrile containing internal standards (100 nM aprozolam, 200 nM caffeine, 100 nM tolbutamide). All samples were vortexed for 10 minutes, followed by centrifugation at 3,220 g for 30 minutes to precipitate proteins. 100 μL of the supernatant is transferred to a new plate. The supernatant will be diluted with ultrapure water according to the LC-MS signal response and peak shape. The concentrations of test compounds and positive control were quantified in the test samples using LC-MS/MS. Results reported as % of prodrug compound remaining at time point, and % of metabolite (mesembranol or 6-epi-mesembranol,) accumulated at time point.

[2] = Plasma stability assay, human plasma; assay type: in vitro ADME
Experimental: as §1

[3] = rat plasma, 37° C., 10 μM, 0 min, % prodrug remaining
[4] = rat plasma, 37° C., 10 μM, 10 min, % prodrug remaining
[5] = rat plasma, 37° C., 10 μM, 30 min, % prodrug remaining
[6] = rat plasma, 37° C., 10 μM, 60 min, % prodrug remaining
[7] = rat plasma, 37° C., 10 μM, 120 min, % prodrug remaining
[8] = rat plasma, 37° C., 10 μM, 240 min, % prodrug remaining
[9] = human plasma, 37° C., 10 μM, 0 min, % prodrug remaining
[10] = human plasma, 37° C., 10 μM, 10 min, % prodrug remaining
[11] = human plasma, 37° C., 10 μM, 30 min, % prodrug remaining
[12] = human plasma, 37° C., 10 μM, 60 min, % prodrug remaining
[13] = human plasma, 37° C., 10 μM, 120 min, % prodrug remaining
[14] = human plasma, 37° C., 10 μM, 240 min, % prodrug remaining

Compound: COc1ccc(C23C=CC(O)CC2N(C)CC3)cc1OC (centres unmarked) [Mesembrenol]
nH, 5-HT transporter (SERT) (5-HT transporter (SERT); Hill coefficient of concentration response curves): 1.1
Ki (5-HT transporter (SERT); concentration response curves, binding): 62 nM

Compound: COc1ccc([C@@]23CC[C@H](OC(=O)c4ccccc4)C[C@@H]2N(C)CC3)cc1OC [Compound 104, (3aS,6S,7aS)-3a-(3,4-dimethoxyphenyl)-1-methyloctahydro-1H-indol-6-yl benzoate]
Prodrug (%) [1, 3]: 100.0%
Prodrug (%) [1, 4]: 62.0%
Prodrug (%) [1, 5]: 27.5%
Prodrug (%) [1, 6]: 7.5%
Prodrug (%) [1, 7]: 1.4%
Prodrug (%) [1, 8]: 0.6%
Prodrug (%) [2, 9]: 100.00%
Prodrug (%) [2, 10]: >99.0%
Prodrug (%) [2, 11]: 97.34%
Prodrug (%) [2, 12]: 97.40%
Prodrug (%) [2, 13]: 95.15%
Prodrug (%) [2, 14]: 90.28%

Compound: COc1ccc([C@@]23CC[C@@H](OC(=O)N(C)C)C[C@@H]2N(C)CC3)cc1OC [Compound 201, (3aS,6R,7aS)-3a-(3,4-dimethoxyphenyl)-1-methyloctahydro-1H-indol-6-yl dimethylcarbamate]
Prodrug (%) [1, 3]: 100.0%
Prodrug (%) [1, 4]: >99.0%
Prodrug (%) [1, 5]: >99.0%
Prodrug (%) [1, 6]: >99.0%
Prodrug (%) [1, 7]: >99.0%
Prodrug (%) [1, 8]: 97.6%
Prodrug (%) [2, 9]: 100.0%
Prodrug (%) [2, 10]: 96.3%
Prodrug (%) [2, 11]: 97.0%
Prodrug (%) [2, 12]: 94.8%
Prodrug (%) [2, 13]: 97.7%
Prodrug (%) [2, 14]: >99.0%

Compound: COc1ccc([C@@]23CC[C@@H](OC(=O)C(C)C)C[C@@H]2N(C)CC3)cc1OC [Compound 203, (3aS,6R,7aS)-3a-(3,4-dimethoxyphenyl)-1-methyloctahydro-1H-indol-6-yl isobutyrate]
Prodrug (%) ([1]; rat, 0 min, 10 µM): 100.0%
Prodrug (%) ([1]; rat, 10 min, 10 µM): 0.1%
Prodrug (%) ([1]; rat, 30 min, 10 µM): 0.1%
Prodrug (%) ([1]; rat, 60 min, 10 µM): 0.0%
Prodrug (%) ([1]; rat, 120 min, 10 µM): 0.0%
Prodrug (%) ([1]; rat, 240 min, 10 µM): 0.0%
Prodrug (%) ([2]; human, 0 min, 10 µM): 100.0%
Prodrug (%) ([2]; human, 10 min, 10 µM): 0.1%
Prodrug (%) ([2]; human, 30 min, 10 µM): 0.1%
Prodrug (%) ([2]; human, 60 min, 10 µM): 0.1%
Prodrug (%) ([2]; human, 120 min, 10 µM): 0.1%
Prodrug (%) ([2]; human, 240 min, 10 µM): 0.1%

Prodrug (%) ([1]; rat, 0 min, 10 µM): 100.0%
Prodrug (%) ([1]; rat, 10 min, 10 µM): 11.5%
Prodrug (%) ([1]; rat, 30 min, 10 µM): 0.0%
Prodrug (%) ([1]; rat, 60 min, 10 µM): 0.0%
Prodrug (%) ([1]; rat, 120 min, 10 µM): 0.0%
Prodrug (%) ([1]; rat, 240 min, 10 µM): 0.0%
Prodrug (%) ([2]; human, 0 min, 10 µM): 100.0%
Prodrug (%) ([2]; human, 10 min, 10 µM): 96.0%
Prodrug (%) ([2]; human, 30 min, 10 µM): 91.8%
Prodrug (%) ([2]; human, 60 min, 10 µM): 87.6%
Prodrug (%) ([2]; human, 120 min, 10 µM): 84.1%
Prodrug (%) ([2]; human, 240 min, 10 µM): 72.5%
Compound: CCOC(=O)O[C@@H]1CC[C@@]2(c3ccc(OC)c(OC)c3)CCN(C)[C@H]2C1 [Compound 209, (3aS,6R,7aS)-3a-(3,4-dimethoxyphenyl)-1-methyloctahydro-1H-indol-6-yl ethyl carbonate]

Compound: CCCCC(=O)OC1CC[C@@]2(c3ccc(OC)c(OC)c3)CCN(C)[C@H]2C1 (stereo in doubt) [Compound 205, (3aS,6S,7aS)-3a-(3,4-dimethoxyphenyl)-1-methyloctahydro-1H-indol-6-yl pentanoate]
Prodrug (%) ([1]; rat, 0 min, 10 µM): 100.0%
Prodrug (%) ([1]; rat, 10 min, 10 µM): 0.6%
Prodrug (%) ([1]; rat, 30 min, 10 µM): 0.1%
Prodrug (%) ([1]; rat, 60 min, 10 µM): 0.1%
Prodrug (%) ([1]; rat, 120 min, 10 µM): 0.1%
Prodrug (%) ([1]; rat, 240 min, 10 µM): 0.0%
Prodrug (%) ([2]; human, 0 min, 10 µM): 100.0%
Prodrug (%) ([2]; human, 10 min, 10 µM): 96.7%
Prodrug (%) ([2]; human, 30 min, 10 µM): 90.7%
Prodrug (%) ([2]; human, 60 min, 10 µM): 84.3%
Prodrug (%) ([2]; human, 120 min, 10 µM): 80.3%
Prodrug (%) ([2]; human, 240 min, 10 µM): 67.9%
